From PubChem BioAssay (NCI)
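Dose response: 5 concentrations. Exposure: 48 h. Format: 96-well plates. Endpoint: linear interpolation; highest concentration if not reached. Definition used: TGI = concentration required for complete inhibition of growth.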

Columns and labels:
Test in all cases: inhibition of tumour cell growth, NCI panel, 48 h
786-0 renal = test system: 786-0 renal
A498 renal = test system: A498 renal
A549 NSCLC = test system: A549 NSCLC
ACHN renal = test system: ACHN renal
BT-549 breast = test system: BT-549 breast
CAKI-1 renal = test system: CAKI-1 renal
CCRF-CEM leukemia = test system: CCRF-CEM leukemia
COLO 205 colon = test system: COLO 205 colon
DU-145 prostate = test system: DU-145 prostate
EKVX NSCLC = test system: EKVX NSCLC
HCC-2998 colon = test system: HCC-2998 colon
HCT-116 colon = test system: HCT-116 colon
HCT-15 colon = test system: HCT-15 colon
HL-60(TB) leukemia = test system: HL-60(TB) leukemia
HOP-62 NSCLC = test system: HOP-62 NSCLC
HOP-92 NSCLC = test system: HOP-92 NSCLC
HS 578T breast = test system: HS 578T breast
HT29 colon = test system: HT29 colon
IGROV1 ovarian = test system: IGROV1 ovarian
K-562 leukemia = test system: K-562 leukemia
KM12 colon = test system: KM12 colon
LOX IMVI melanoma = test system: LOX IMVI melanoma
M14 melanoma = test system: M14 melanoma
MALME-3M melanoma = test system: MALME-3M melanoma
MCF7 breast = test system: MCF7 breast
MDA-MB-231 breast = test system: MDA-MB-231 breast
MDA-MB-435 = test system: MDA-MB-435
MDA-N = test system: MDA-N
MOLT-4 leukemia = test system: MOLT-4 leukemia
NCI-H226 lung = test system: NCI-H226 lung
NCI-H23 lung = test system: NCI-H23 lung
NCI-H460 lung = test system: NCI-H460 lung
NCI-H522 lung = test system: NCI-H522 lung
NCI/ADR-RES ovarian = test system: NCI/ADR-RES ovarian
OVCAR-3 ovarian = test system: OVCAR-3 ovarian
OVCAR-4 ovarian = test system: OVCAR-4 ovarian
OVCAR-5 ovarian = test system: OVCAR-5 ovarian
OVCAR-8 ovarian = test system: OVCAR-8 ovarian
PC-3 prostate = test system: PC-3 prostate
RPMI-8226 leukemia = test system: RPMI-8226 leukemia
RXF 393 renal = test system: RXF 393 renal
SF-268 CNS = test system: SF-268 CNS
SF-295 CNS = test system: SF-295 CNS
SF-539 CNS = test system: SF-539 CNS
SK-MEL-2 melanoma = test system: SK-MEL-2 melanoma
SK-MEL-28 melanoma = test system: SK-MEL-28 melanoma
SK-OV-3 ovarian = test system: SK-OV-3 ovarian
SN12C renal = test system: SN12C renal
SNB-19 CNS = test system: SNB-19 CNS
SNB-75 CNS = test system: SNB-75 CNS
SR leukemia = test system: SR leukemia
SW-620 colon = test system: SW-620 colon
T-47D breast = test system: T-47D breast
TK-10 renal = test system: TK-10 renal
U251 CNS = test system: U251 CNS
UACC-257 melanoma = test system: UACC-257 melanoma
UACC-62 melanoma = test system: UACC-62 melanoma
UO-31 renal = test system: UO-31 renal
SK-MEL-5 melanoma = test system: SK-MEL-5 melanoma

With CC1(C)[C@@H]2CC[C@@]1(C)C1(SS1=O)C21Cc2ccccc2C1 (some centres undefined) the TGI (786-0 renal) was 31.3 µM, the TGI (A498 renal) was 97.3 µM and the TGI (A549 NSCLC) was > 100 µM. The TGI (ACHN renal) was 45.5 µM, the TGI (BT-549 breast) was 85.9 µM and the TGI (CAKI-1 renal) was 45.6 µM. The TGI (CCRF-CEM leukemia) was 36.3 µM, the TGI (COLO 205 colon) was 99 µM and the TGI (DU-145 prostate) was 45.4 µM. For the same compound, the TGI (EKVX NSCLC) was 73 µM, the TGI (HCC-2998 colon) was 36.9 µM and the TGI (HCT-116 colon) was 28.5 µM. The TGI (HCT-15 colon) was 63.7 µM, the TGI (HL-60(TB) leukemia) was 42.5 µM and the TGI (HOP-62 NSCLC) was > 100 µM. For the same compound, the TGI (HOP-92 NSCLC) was 67.5 µM, the TGI (HS 578T breast) was > 100 µM and the TGI (HT29 colon) was 40.9 µM. For the same compound, the TGI (IGROV1 ovarian) was 37.2 µM, the TGI (K-562 leukemia) was 51.6 µM and the TGI (KM12 colon) was > 100 µM. The TGI (LOX IMVI melanoma) was 28.5 µM, the TGI (M14 melanoma) was > 100 µM and the TGI (MALME-3M melanoma) was > 100 µM. For the same compound, the TGI (MCF7 breast) was 63.9 µM, the TGI (MDA-MB-231 breast) was 34.9 µM and the TGI (MDA-MB-435) was 99 µM. The TGI (MDA-N) was 35.5 µM, the TGI (MOLT-4 leukemia) was 58.4 µM and the TGI (NCI-H226 lung) was > 100 µM. The TGI (NCI-H23 lung) was > 100 µM, the TGI (NCI-H460 lung) was 52.2 µM and the TGI (NCI-H522 lung) was 30.8 µM. The TGI (NCI/ADR-RES ovarian) was 67.5 µM, the TGI (OVCAR-3 ovarian) was > 100 µM and the TGI (OVCAR-4 ovarian) was 32 µM. It also gave a TGI (OVCAR-5 ovarian) of 45.7 µM, a TGI (OVCAR-8 ovarian) of 31 µM and a TGI (PC-3 prostate) of 41.7 µM. For the same compound, the TGI (RPMI-8226 leukemia) was 50.5 µM, the TGI (RXF 393 renal) was 38.9 µM and the TGI (SF-268 CNS) was > 100 µM. The TGI (SF-295 CNS) was > 100 µM, the TGI (SF-539 CNS) was 72.3 µM and the TGI (SK-MEL-2 melanoma) was 60.5 µM. The TGI (SK-MEL-28 melanoma) was 54 µM, the TGI (SK-OV-3 ovarian) was > 100 µM and the TGI (SN12C renal) was 35.8 µM. For the same compound, the TGI (SNB-19 CNS) was > 100 µM, the TGI (SNB-75 CNS) was > 100 µM and the TGI (SR leukemia) was 54.5 µM. For the same compound, the TGI (SW-620 colon) was 36.1 µM, the TGI (T-47D breast) was 70.3 µM and the TGI (TK-10 renal) was 38.7 µM. It also gave a TGI (U251 CNS) of 84.5 µM, a TGI (UACC-257 melanoma) of 55.9 µM and a TGI (UACC-62 melanoma) of 70 µM. It also gave a TGI (UO-31 renal) of 35.8 µM.
With CCc1n[nH]c(=O)n1N1C(=O)C2CCCCC2C1=O (centres undefined) the TGI (786-0 renal) was > 100 µM, the TGI (A498 renal) was > 100 µM and the TGI (A549 NSCLC) was > 100 µM. The TGI (ACHN renal) was > 100 µM, the TGI (BT-549 breast) was > 100 µM and the TGI (CAKI-1 renal) was > 100 µM. The TGI (CCRF-CEM leukemia) was > 100 µM, the TGI (COLO 205 colon) was > 100 µM and the TGI (DU-145 prostate) was > 100 µM. The TGI (EKVX NSCLC) was > 100 µM, the TGI (HCC-2998 colon) was > 100 µM and the TGI (HCT-116 colon) was > 100 µM. For the same compound, the TGI (HCT-15 colon) was > 100 µM, the TGI (HL-60(TB) leukemia) was > 100 µM and the TGI (HOP-62 NSCLC) was > 100 µM. For the same compound, the TGI (HOP-92 NSCLC) was > 100 µM, the TGI (HS 578T breast) was > 100 µM and the TGI (HT29 colon) was > 100 µM. The TGI (IGROV1 ovarian) was > 100 µM, the TGI (K-562 leukemia) was > 100 µM and the TGI (KM12 colon) was > 100 µM. The TGI (LOX IMVI melanoma) was > 100 µM, the TGI (M14 melanoma) was > 100 µM and the TGI (MALME-3M melanoma) was > 100 µM. The TGI (MCF7 breast) was > 100 µM, the TGI (MDA-MB-231 breast) was > 100 µM and the TGI (MDA-MB-435) was > 100 µM. The TGI (MDA-N) was > 100 µM, the TGI (MOLT-4 leukemia) was > 100 µM and the TGI (NCI-H226 lung) was > 100 µM. For the same compound, the TGI (NCI-H23 lung) was > 100 µM, the TGI (NCI-H522 lung) was > 100 µM and the TGI (NCI/ADR-RES ovarian) was > 100 µM. The TGI (OVCAR-3 ovarian) was > 100 µM, the TGI (OVCAR-4 ovarian) was > 100 µM and the TGI (OVCAR-5 ovarian) was > 100 µM. The TGI (OVCAR-8 ovarian) was > 100 µM, the TGI (PC-3 prostate) was > 100 µM and the TGI (RPMI-8226 leukemia) was > 100 µM. For the same compound, the TGI (RXF 393 renal) was > 100 µM, the TGI (SF-268 CNS) was > 100 µM and the TGI (SF-295 CNS) was > 100 µM. For the same compound, the TGI (SK-MEL-2 melanoma) was > 100 µM, the TGI (SK-MEL-28 melanoma) was > 100 µM and the TGI (SK-MEL-5 melanoma) was > 100 µM. For the same compound, the TGI (SK-OV-3 ovarian) was > 100 µM, the TGI (SN12C renal) was > 100 µM and the TGI (SNB-75 CNS) was > 100 µM. The TGI (SR leukemia) was > 100 µM, the TGI (SW-620 colon) was > 100 µM and the TGI (T-47D breast) was > 100 µM. For the same compound, the TGI (TK-10 renal) was > 100 µM, the TGI (U251 CNS) was > 100 µM and the TGI (UACC-257 melanoma) was > 100 µM. For the same compound, the TGI (UACC-62 melanoma) was > 100 µM and the TGI (UO-31 renal) was > 100 µM.
